Experimental data published in paper PMC5078989, “Targeted inhibition of the COP9 signalosome for treatment of cancer” (Nature Communications, 2016).

Tested on: panel of cancer cell lines
Assay: Cell viability (CellTiter-Glo) dose-response across cancer cell line panel;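 for EC50: after 72 h compound incubation with CellTiter-Glo ATP readout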
Type: cell-based, human
Details: for EC50: Homo sapiens
From the text: Next, we explored the effect of CSN5 inhibition on the viability of cancer cells. To obtain a comprehensive picture, we generated dose–response curves with a CSN5 inhibitor across more than 500 cancer cell lines in a previously described standardized setting[47] (Supplementary Data 1).
A standardized CellTiter-Glo Assay (Promega #G7570) based on the quantification of ATP was applied according to the manufacturer's protocol to measure the amount of viable cells in culture. In brief, cells were seeded into 384-well plates at optimal density for each cell line. After 4 h, compounds were added at different concentrations in growth medium and incubated for another 72 h in a humidifying chamber at 37 °C and 5% CO2. […] EC50 values were calculated from the plot of percentage of inhibition versus inhibitor concentration using the nonlinear regression analysis software Origin 7.5SR6 (OriginLab Corp.).

With COCc1ccccc1NCc1ccc([C@H]2[C@@H](O)CCCc3cncn32)c(-c2ccccc2Cl)c1 [CSN5i-2, (5S,6S)-5-(2′-chloro-5-(((2-(methoxymethyl)phenyl)amino)methyl)-[1,1′-biphenyl]-2-yl)-6,7,8,9-tetrahydro-5H-imidazo[1,5-a]azepin-6-ol] the AMAX (59M) was -68.225, the AMAX (A101D) was -76.7398 and the AMAX (A172) was -55.6841. The AMAX (A549) was -65.9191, the AMAX (A2780) was -85.074 and the AMAX (ABC-1) was -77.8125. For the same compound, the AMAX (AM-38) was -77.876, the AMAX (AU565) was -62.6343 and the AMAX (AsPC-1) was -59.6849. It also gave an AMAX (BFTC-909) of -64.2004, an AMAX (BICR 6) of -79.1425 and an AMAX (BICR 16) of -84.074. For the same compound, the AMAX (Calu-6) was -81.2731, the AMAX (FaDu) was -81.7331 and the AMAX (GP2d) was -35.7458. It also gave an AMAX (HARA) of -63.4816, an AMAX (HCC1143) of -57.1762 and an AMAX (HCC1187) of -75.8993. The AMAX (HCC1954) was -88.6962, the AMAX (HD-MY-Z) was -86.2175 and the AMAX (HEC-151) was -65.4188. The AMAX (HEL) was -95.954, the AMAX (HL-60) was -90.6278 and the AMAX (HLC-1) was -73.9563. The AMAX (HLE) was -90.9124, the AMAX (HLF) was -62.5035 and the AMAX (HSC-4) was -75.9669. For the same compound, the AMAX (HT-29) was -64.9206, the AMAX (HUP-T4) was -81.3707 and the AMAX (Hep3B) was -76.5642. The EC50 (59M) was 2650 nM, the EC50 (92.1) was 3880 nM and the EC50 (639-V) was 723 nM. It also gave an EC50 697 of 477 nM, an EC50 (769-P) of 13900 nM and an EC50 (786-0, 786-O) of 1050 nM. For the same compound, the EC50 (1321-N1, 1321N1) was 3680 nM, the EC50 (8505C) was 829 nM and the EC50 (A4/Fuk) was 120 nM. It also gave an EC50 (A101D) of 372 nM, an EC50 (A 172, A172) of 13400 nM and an EC50 (A204, A-204) of 206 nM. The EC50 (A498, A-498) was 1400 nM, the EC50 (A549, A549) was 1410 nM and the EC50 (A673, A-673) was 431 nM. It also gave an EC50 (A704, A-704) of 1640 nM, an EC50 (A2058, A2058) of 2050 nM and an EC50 (A2780, A2780) of 279 nM. For the same compound, the EC50 (A-375, A-375) was 690 nM, the EC50 (ABC-1, ABC-1) was 485 nM and the EC50 (ACC-MESO-1, ACC-MESO-1) was 2400 nM. For the same compound, the EC50 (AM-38, AM-38) was 983 nM, the EC50 (AML-193) was 3210 nM and the EC50 (AN3-CA, AN3 CA) was 2230 nM. For the same compound, the EC50 (ASPC1, AsPC-1) was 4740 nM, the EC50 (AU565, AU565) was 1350 nM and the EC50 (BC-3C) was 2030 nM. For the same compound, the EC50 (BEN) was 12500 nM, the EC50 (BFTC-909, BFTC-909) was 7580 nM and the EC50 (BICR 6) was 1110 nM. It also gave an EC50 (BICR 16) of 1020 nM, an EC50 (BICR 31) of 1210 nM and an EC50 (BT-16, BT-16) of 3280 nM. The EC50 (BT-549, BT-549) was 296 nM, the EC50 (BXPC-3, BxPC-3) was 6030 nM and the EC50 (C3A) was greater than 30000 nM. It also gave an EC50 (C32, C32) of 830 nM, an EC50 (CAKI-1, Caki-1) of 845 nM and an EC50 (CAKI-2, Caki-2) of 3040 nM. It also gave an EC50 (CAL-12T) of 474 nM, an EC50 (CAL-27, CAL 27) of 713 nM and an EC50 (CAL-29) of 5690 nM. The EC50 (CAL-54, CAL-54) was 1170 nM, the EC50 (CAL-85-1, CAL-85-1) was 7990 nM and the EC50 (CAL-120, CAL-120) was 6810 nM. It also gave an EC50 (CAL-148, CAL-148) of 1680 nM, an EC50 (CAMA-1, CAMA-1) of 20500 nM and an EC50 (CAPAN-1, Capan-1) of 643 nM. It also gave an EC50 (CAS-1) of 705 nM, an EC50 (CCRF-HSB-2, CCRF-HSB-2) of 150 nM and an EC50 (CEM/C1, CEMC1) of 343 nM. It also gave an EC50 (CFPAC-1, CFPAC-1) of 3540 nM, an EC50 (CL-14) greater than 30000 nM and an EC50 (CL-34) of 3880 nM. The EC50 (CMK) was 1800 nM, the EC50 (CMK-86, CMK-86) was 1720 nM and the EC50 (COLO 201, COLO 201) was 1120 nM. It also gave an EC50 (COLO 205, COLO 205) of 12500 nM, an EC50 (COLO 320, COLO-320) of 1400 nM and an EC50 (COLO 699, COLO-699) of 3050 nM. The EC50 (COLO 704, COLO-704) was 634 nM, the EC50 (COLO-678, COLO-678) was 3410 nM and the EC50 (COLO-679, COLO-679) was 492 nM. The EC50 (COLO-741, COLO 741) was 1340 nM, the EC50 (COLO-829, COLO 829) was 10700 nM and the EC50 (COR-L23, COR-L23) was 11800 nM. For the same compound, the EC50 (COR-L105, COR-L105) was 4940 nM, the EC50 (COV362, COV362) was 8840 nM and the EC50 (COV644) was 1040 nM. For the same compound, the EC50 (CW-2, CW-2) was 4950 nM, the EC50 (Calu-1, Calu-1) was 13000 nM and the EC50 (Calu-6, Calu-6) was 539 nM. It also gave an EC50 (ChaGo-K-1, ChaGo-K-1) of 967 nM, an EC50 (Ci-1, CI-1) of 193 nM and an EC50 (DAN-G) of 13400 nM. For the same compound, the EC50 (DB) was 290 nM, the EC50 (DLD-1, DLD-1) was greater than 30000 nM and the EC50 (DMS-53, DMS 53) was 8760 nM. For the same compound, the EC50 (DMS-153, DMS 153) was 405 nM, the EC50 (DMS-273, DMS 273) was 691 nM and the EC50 (DU-4475, DU4475) was 218 nM. It also gave an EC50 (Daoy) of 542 nM, an EC50 (Detroit 562, Detroit 562) of 4000 nM and an EC50 (EBC-1, EBC-1) of 5630 nM. The EC50 (EOL1, EOL-1) was 262 nM, the EC50 (FaDu) was 550 nM and the EC50 (Fu97, FU97) was 942 nM. For the same compound, the EC50 (G-401, G-401) was 402 nM, the EC50 (G-402, G-402) was 4100 nM and the EC50 (GAMG) was 2920 nM. For the same compound, the EC50 (GB-1, GB-1) was 3900 nM, the EC50 (GDM-1, GDM-1) was 162 nM and the EC50 (GI-1, GI-1) was 3270 nM. It also gave an EC50 (GP2d) greater than 30000 nM, an EC50 (H4) of 790 nM and an EC50 (HARA) of 9030 nM. The EC50 (HCC15, HCC-15) was 5200 nM, the EC50 (HCC44, HCC-44) was 2380 nM and the EC50 (HCC70, HCC70) was 2350 nM. It also gave an EC50 (HCC78, HCC-78) of 2290 nM, an EC50 (HCC95, HCC-95) of 18400 nM and an EC50 (HCC827, HCC827) of 1780 nM. It also gave an EC50 (HCC1143, HCC1143) of 6070 nM, an EC50 (HCC1187, HCC1187) of 7500 nM and an EC50 (HCC1588, HCC-1588) of 421 nM. It also gave an EC50 (HCC1806, HCC1806) of 5450 nM, an EC50 (HCC1954, HCC1954) of 2180 nM and an EC50 (HCC4006, HCC4006) of 1730 nM. It also gave an EC50 (HCC-56) of 413 nM, an EC50 (HCC-1359) of 1870 nM and an EC50 (HCC-1833) of 3410 nM. For the same compound, the EC50 (HCT-15, HCT-15) was 1360 nM and the EC50 (HD-MY-Z) was 531 nM.
